Earlier results, collected in US20140154346A1, “USE OF FENUGREEK EXTRACT TO ENHANCE FEMALE LIBIDO” (GE NUTRIENTS, INC., priority 2012, published 2014).

System: women with hypoactive sexual disorder
Settings: 300 μg/day, 12 months; also increase in desire and decrease in stress

Structure (SMILES): C[C@]12CC[C@H]3[C@@H](CCC4=CC(=O)CC[C@@]43C)[C@@H]1CC[C@@H]2O [testosterone]
- frequency of satisfying sexual encounters: increased frequency
